{"source": "ChEMBL document CHEMBL1255229", "about": "“Novel antimicrobial peptides that exhibit activity against select agents and other drug resistant bacteria” (2010)", "assay_type_in_all_cases": "functional", "key": {"[1]": {"tested_on": "Burkholderia pseudomallei", "test": "Antimicrobial activity against Burkholderia pseudomallei BURK003(1026b) after 24 hrs"}, "Francisella tularensis": {"tested_on": "Francisella tularensis", "test": "Antimicrobial activity against Francisella tularensis SCHU-S4 after 24 hrs", "details": "SCHU-S4, 24 h"}, "Acinetobacter baumannii [2]": {"tested_on": "Acinetobacter baumannii", "test": "Antimicrobial activity against Acinetobacter baumannii WRAIR after 24 hrs"}, "Staphylococcus aureus": {"tested_on": "Staphylococcus aureus", "test": "Antimicrobial activity against methicillin-resistant Staphylococcus aureus ATCC 33591 after 24 hrs", "details": "ATCC 33591, 24 h"}, "Bacillus anthracis": {"tested_on": "Bacillus anthracis", "test": "Antimicrobial activity against Bacillus anthracis Ames after 24 hrs"}, "Brucella melitensis": {"tested_on": "Brucella melitensis", "test": "Antimicrobial activity against Brucella melitensis 16 M after 24 hrs"}, "Brucella abortus": {"tested_on": "Brucella abortus", "test": "Antimicrobial activity against Brucella abortus 2308 after 24 hrs", "details": "Brucella abortus, 2308, 24 h"}, "Burkholderia mallei": {"tested_on": "Burkholderia mallei", "test": "Antimicrobial activity against Burkholderia mallei ATCC 23444 after 24 hrs", "details": "ATCC 23444, 24 h"}, "Acinetobacter baumannii [3]": {"tested_on": "Acinetobacter baumannii", "test": "Antimicrobial activity against Acinetobacter baumannii ATCC 19606 after 24 hrs", "details": "ATCC 19606 = CIP 70.34 = JCM 6841, 24 h"}, "Yersinia pestis": {"tested_on": "Yersinia pestis", "test": "Antimicrobial activity against Yersinia pestis CO92 after 24 hrs", "details": "CO92, 24 h"}, "Brucella suis": {"tested_on": "Brucella suis", "test": "Antimicrobial activity against Brucella suis ATCC 23445 after 24 hrs", "details": "ATCC 23445, 24 h"}}, "note": "Starred links: 1 amine or outer side, 2 acyl side, 3 side chain; linkers in the order of their positions; H or OH if unused. Non-standard residues stand in square brackets, D forms with d. Residues, ends and D or L forms follow the SMILES beside them. X1 = O=C([C@@H]1CN([*:1])C2CCCCC21)[*:2]; X2 = O=C([C@H]1CN([*:1])C2CCCCC21)[*:2]; Tic = O=C(O)[C@@H]1Cc2ccccc2CN1"}
{"compound": "CC(=O)NCC(=O)N[C@@H](Cc1ccccc1)C(=O)N1C[C@@H](C(=O)N2C[C@H](C(=O)NCC(=O)N[C@@H](CCCCN)C(=O)N3C[C@@H](C(=O)N4C[C@@H](C(=O)NCC(=O)N[C@@H](Cc5ccccc5)C(=O)N5C[C@@H](C(=O)N6C[C@@H](C(=O)NCC(=O)N[C@@H](CCCCN)C(=O)N7Cc8ccccc8C[C@H]7C(=O)N[C@@H](CCCCN)C(=O)N[C@@H](CCCCN)C(=O)N[C@@H](CCCCN)C(=O)N[C@@H](CCCCN)C(N)=O)C7CCCCC76)C6CCCCC65)C5CCCCC54)C4CCCCC43)C3CCCCC32)C2CCCCC21", "note": "(stereo partly specified) (Ac-GF[X1][X2]GK[X1][X1]GF[X1][X1]GK[Tic]KKKK-NH2)", "values": [{"measurement": "MIC", "setting": "[1]", "value": 207, "unit": "µM"}, {"measurement": "MIC", "setting": "Francisella tularensis", "value": 104, "unit": "µM"}, {"measurement": "MIC", "setting": "Acinetobacter baumannii [2]", "value": 3.2, "unit": "µM"}, {"measurement": "MIC", "setting": "Staphylococcus aureus", "value": 207, "unit": "µM"}, {"measurement": "MIC", "setting": "Bacillus anthracis", "value": 26, "unit": "µM"}, {"measurement": "MIC", "setting": "Brucella melitensis", "value": 207, "unit": "µM"}, {"measurement": "MIC", "setting": "Brucella abortus", "value": 207, "unit": "µM"}, {"measurement": "MIC", "setting": "Burkholderia mallei", "value": 207, "unit": "µM"}, {"measurement": "MIC", "setting": "Acinetobacter baumannii [3]", "value": 3.2, "unit": "µM"}, {"measurement": "MIC", "setting": "Yersinia pestis", "value": 207, "unit": "µM"}, {"measurement": "MIC", "setting": "Brucella suis", "value": 207, "unit": "µM"}]}
